Source: US20240158373A1, “RING-MODIFIED PROLINE SHORT PEPTIDE COMPOUND AND USE THEREOF” (FUJIAN AKEYLINK BIOTECHNOLOGY CO., LTD., priority 2021, published 2024)
Where two headings read alike, the source gives them in different places.

Assays:
[1] = Pharmacokinetics test of mice; assay type: in vivo, C57BL/6J male mice; settings: mouse, plasma
Protocol: In this study, C57BL/6J male mice were selected as test animals, and LC/MS/MS method was used to quantitatively measure the plasma concentration of the test compound 11 at different time points after oral administration and injection in mice, so as to evaluate the pharmacokinetic characteristics of the test drug in mice.
The test compound dissolved in 30% PEG400+70% normal saline was administered to mice (overnight fasting, 6-8 weeks old) by intragastric administration. 25 μL of blood was collected at 0.083, 0.25, 0.5, 1, 2, 4, 8, 12 and 24 hours after administration, respectively, and placed in commercial anticoagulation tubes pre-added with EDTA-K2, centrifuged at 4° C., 3200 g for 10 min to obtain plasma, and after the plasma sample was treated, the plasma concentration was determined by LC-MS/MS method.

[2] = Pharmacokinetic test in combination with Ritonavir in mice; assay type: in vivo, C57BL/6J male mice; settings: mouse, plasma, po, 10 mg/kg, p.o. 10 mpk
Protocol: In this study, C57BL/6J male mice were selected as test animals, and the LC/MS/MS method was used to quantitatively measure the plasma concentrations of mice in combination with Ritonavir at different time points, so as to evaluate the pharmacokinetic characteristics of the test drug in mice.
Firstly, 10 mpk of Ritonavir was administered to mice by intragastric administration at −12 h and 0 h, and then the test compound was dissolved in 30% PEG400+70% normal saline solution and administered to mice by intragastric administration (overnight fasting, 6 to 8 weeks old). 25 μL of blood was collected at 0.083, 0.25, 0.5, 1, 2, 4, 8, 12 and 24 hours after administration to animals, placed in a commercial anticoagulant tube pre-added with EDTA-K2, and centrifuged at 4° C., 3200 g for 10 min to obtain plasma. After the plasma samples were treated, the plasma concentration was determined by LC-MS/MS method.

[3] = Tissue distribution test in rats (after Ritonavir); assay type: in vivo, SD male rats; settings: rat, po, 30 mg/kg, with Ritonavir
Protocol: In this study, SD male rats were selected as test animals, and the drug concentrations of test compounds in plasma and lungs of rats at different time points were quantitatively measured by LC/MS/MS method to evaluate the pharmacokinetic characteristics of test drugs in rats.
Firstly, 10 mpk of Ritonavir was administered to rats by intragastric administration at −12 h and 0 h, and 30 mpk of the test compound was dissolved in 10% Solutol+30% PEG 400+2% Tween 80+H2O 58% solution and administered to rats by intragastric administration (overnight fasting). 40 μL of blood was collected from the saphenous vein of rats at 0.25, 1 and 6 hours after administration, placed in an anticoagulant tube added with EDTA-K2, centrifuged at 4° C., 3200 g for 10 min to obtain plasma, and some animals were killed at 0.25, 1 and 6 hours respectively to collect lung tissue. After the plasma samples were treated, the plasma concentration was determined by LC-MS/MS method.

SARS-CoV-2 Mpro = molecular target: T1, SARS-CoV-2 Mpro (Severe acute respiratory syndrome coronavirus 2, UniProt P0DTD1); experiment: In vitro anti-novel coronavirus Mpro protease activity (fluorogenic substrate); assay type: biochemical; settings: 25 nM Mpro, 25 μM substrate, 30 min pre-incubation
T1 construct: SARS-CoV-2 Mpro; purchased WuXi AppTec
Protocol: The compound was dissolved in DMSO, and diluted in a 3-fold gradient with Echo655 according to the concentration requirements to 10 concentration points, and duplicate tests were set at each concentration, and the diluted solution was added to a 384-well plate. Mpro protein and substrate were diluted with test buffer (100 mM NaCl, 20 mM Tris-HCl, 1 mM EDTA), and Mpro protein was added to the 384-well test plate, incubated with the compound for 30 min at room temperature, and then the substrate was added thereto, and the test concentration of Mpro protein was 25 nM, and the test concentration of substrate was 25 μM. After incubating for 60 minutes in a 30° C. constant temperature incubator, the fluorescence signal value of Ex/Em=340 nm/490 nm was detected by microplate reader. At the same time, the background well containing the substrate and compound but not containing Mpro protein was detected as control.
1) The inhibition rate was calculated using the following formula:
Inhibition rate %=[(compound-BGcompound)−(ZPE-BGZPE)]/[(HPE-BGHPE)−(ZPE-BGZPE)]*100%
ZPE: No-inhibition control, containing 25 nM Mpro protein+25 μM substrate, not containing compound
Compound: Test compound well, containing 25 nM Mpro protein+25 μM substrate+compound
BG: Background control well, containing 25 μM substrate+compound, not containing Mpro protein
2) Log (agonist) vs. response—variable slope nonlinear fitting analysis was carried out on the inhibition rate data (inhibition rate %) of the compound by using GraphPad Prism software, and the IC50 value of the compound was obtained.

CC(C)(C)[C@H](NC(=O)C(F)(F)F)C(=O)N1[C@H]2C[C@@H]([C@H]1C(=O)N[C@H](C#N)C[C@@H]1CCNC1=O)C1(CC1)C2 [Compound 11]
AUC(0-t) ([1]; iv, 3 mg/kg, i.v. 3 mpk): 1.45 µM·h
clearance ([1]; iv, 3 mg/kg, i.v. 3 mpk): 68.5 mL/min/kg
half-life ([1]; iv, 3 mg/kg, i.v. 3 mpk): 12 min
Vd ([1]; iv, 3 mg/kg, i.v. 3 mpk, read-out: Vdss): 0.9 L/kg
AUC(0-t) ([1]; po, 10 mg/kg, p.o. 10 mpk): 1.52 µM·h
Tmax ([1]; po, 10 mg/kg, p.o. 10 mpk): 15 min
Cmax ([1]; po, 10 mg/kg, p.o. 10 mpk): 1.85 µM
AUC(0-t) ([2]; with Ritonavir 10 mpk): 28.7 µM·h
Tmax ([2]; with Ritonavir 10 mpk): 30 min
Cmax ([2]; with Ritonavir 10 mpk at −12 h and 0 h): 10.1 µM
Kp at 0.25 h ([3]; lung, 0.25 h, given as x/1, read-out: Lung/plasma ratio at 0.25 h): 5.5
Kp at 1 h ([3]; lung, 1 h, given as x/1, read-out: Lung/plasma ratio at 1 h): 3.2
Kp at 6 h ([3]; lung, 6 h, given as x/1, read-out: Lung/plasma ratio at 6 h): 1.6
Kp at 6 h ([3]; lung, given as x/1, read-out: Lung/plasma ratio of AUC(0-6 h)): 2.6
concentration at 0.25 h ([3]; 30 mpk intragastric, lung, 0.25 h, read-out: Lung concentration at 0.25 h): 15.8 µM
concentration at 1 h ([3]; 30 mpk intragastric, lung, 1 h, read-out: Lung concentration at 1 h): 18.4 µM
concentration at 6 h ([3]; 30 mpk intragastric, lung, 6 h, read-out: Lung concentration at 6 h): 7.85 µM
AUC at 6 h ([3]; 30 mpk intragastric, lung, read-out: Lung AUC(0-6 h)): 76.8 µM·h
AUC(0-t) at 6 h ([3]; 30 mpk intragastric, plasma): 29.4 µM·h
concentration at 0.25 h ([3]; 30 mpk intragastric, plasma, 0.25 h, read-out: Plasma concentration at 0.25 h): 2.86 µM
concentration at 1 h ([3]; 30 mpk intragastric, plasma, 1 h, read-out: Plasma concentration at 1 h): 5.49 µM
concentration at 6 h ([3]; 30 mpk intragastric, plasma, 6 h, read-out: Plasma concentration at 6 h): 4.88 µM

CC(C)(C)[C@H](NC(=O)C(F)(F)F)C(=O)N1C[C@@H]2C3C=CC(C3)[C@@H]2[C@H]1C(=O)N[C@H](C#N)C[C@@H]1CCNC1=O (single isomer, unassigned) [Compound 28]
IC50 (SARS-CoV-2 Mpro): 31 nM

CC(C)(C)[C@H](NC(=O)C(F)(F)F)C(=O)N1C[C@@H]2C3CCC(C3)[C@@H]2[C@H]1C(=O)N[C@H](C#N)C[C@@H]1CCNC1=O (single isomer, unassigned) [Compound 29-2]
IC50 (SARS-CoV-2 Mpro): 11 nM

N#C[C@H](C[C@@H]1CCNC1=O)NC(=O)[C@@H]1[C@H]2CC[C@H](C2)N1C(=O)[C@@H](NC(=O)C(F)(F)F)C12CC3CC(CC(F)(C3)C1)C2 [Compound 9]
IC50 (SARS-CoV-2 Mpro): 25 nM

CC(C)(C)[C@H](NC(=O)C(F)(F)F)C(=O)N1C[C@@H]2C3C=CC(C3)[C@@H]2[C@H]1C(=O)N[C@H](C#N)C[C@@H]1CCNC1=O (single isomer, unassigned) [Compound 28A]
IC50 (SARS-CoV-2 Mpro): 2.6 nM

CC(C)(C)[C@H](NC(=O)C(F)(F)F)C(=O)N1C[C@@H]2C3CCC(C3)[C@@H]2[C@H]1C(=O)N[C@H](C#N)C[C@@H]1CCNC1=O (single isomer, unassigned) [Compound 29-1]
IC50 (SARS-CoV-2 Mpro): 264 nM
